Assay results taken from patent US8022206B2 (OSI Pharmaceuticals, LLC, priority 2008, dated 2011).

Target: RON (human) (Homo sapiens, UniProt Q04912)
Assay: RON (human) AlphaScreen kinase assay, Km of ATP
Type: biochemical
Details: AlphaScreen, Km of ATP; read-out: RON biochemical IC50
Experimental: Someone skilled in the art will appreciate that a variety of assay formats may be used to determine the activity of the compounds of this invention. For example, AlphaScreen (Amplified Luminescent Proximity Homogeneous Assay) technology was used with the kinases described below. Assay ATP concentrations for individual kinases are included in the text.
Desired compound is added in a final concentration of 1% DMSO with control being vehicle of DMSO alone. […] Enzyme is added to initiate the reaction and incubated for 30 min at RT. In subdued light, appropriate amount of PT66 donor and acceptor beads (diluted 1:260 from manufacturer's provision in a 25 mM Tris HCl (pH=7.5), 200 mM NaCl, 100 mM EDTA, 0.3% BSA buffer) are added to the wells. The plates, incubated for 1 h, are read on an AlphaQuest plate reader.

Chain of RON (human) (Q04912 25-1400): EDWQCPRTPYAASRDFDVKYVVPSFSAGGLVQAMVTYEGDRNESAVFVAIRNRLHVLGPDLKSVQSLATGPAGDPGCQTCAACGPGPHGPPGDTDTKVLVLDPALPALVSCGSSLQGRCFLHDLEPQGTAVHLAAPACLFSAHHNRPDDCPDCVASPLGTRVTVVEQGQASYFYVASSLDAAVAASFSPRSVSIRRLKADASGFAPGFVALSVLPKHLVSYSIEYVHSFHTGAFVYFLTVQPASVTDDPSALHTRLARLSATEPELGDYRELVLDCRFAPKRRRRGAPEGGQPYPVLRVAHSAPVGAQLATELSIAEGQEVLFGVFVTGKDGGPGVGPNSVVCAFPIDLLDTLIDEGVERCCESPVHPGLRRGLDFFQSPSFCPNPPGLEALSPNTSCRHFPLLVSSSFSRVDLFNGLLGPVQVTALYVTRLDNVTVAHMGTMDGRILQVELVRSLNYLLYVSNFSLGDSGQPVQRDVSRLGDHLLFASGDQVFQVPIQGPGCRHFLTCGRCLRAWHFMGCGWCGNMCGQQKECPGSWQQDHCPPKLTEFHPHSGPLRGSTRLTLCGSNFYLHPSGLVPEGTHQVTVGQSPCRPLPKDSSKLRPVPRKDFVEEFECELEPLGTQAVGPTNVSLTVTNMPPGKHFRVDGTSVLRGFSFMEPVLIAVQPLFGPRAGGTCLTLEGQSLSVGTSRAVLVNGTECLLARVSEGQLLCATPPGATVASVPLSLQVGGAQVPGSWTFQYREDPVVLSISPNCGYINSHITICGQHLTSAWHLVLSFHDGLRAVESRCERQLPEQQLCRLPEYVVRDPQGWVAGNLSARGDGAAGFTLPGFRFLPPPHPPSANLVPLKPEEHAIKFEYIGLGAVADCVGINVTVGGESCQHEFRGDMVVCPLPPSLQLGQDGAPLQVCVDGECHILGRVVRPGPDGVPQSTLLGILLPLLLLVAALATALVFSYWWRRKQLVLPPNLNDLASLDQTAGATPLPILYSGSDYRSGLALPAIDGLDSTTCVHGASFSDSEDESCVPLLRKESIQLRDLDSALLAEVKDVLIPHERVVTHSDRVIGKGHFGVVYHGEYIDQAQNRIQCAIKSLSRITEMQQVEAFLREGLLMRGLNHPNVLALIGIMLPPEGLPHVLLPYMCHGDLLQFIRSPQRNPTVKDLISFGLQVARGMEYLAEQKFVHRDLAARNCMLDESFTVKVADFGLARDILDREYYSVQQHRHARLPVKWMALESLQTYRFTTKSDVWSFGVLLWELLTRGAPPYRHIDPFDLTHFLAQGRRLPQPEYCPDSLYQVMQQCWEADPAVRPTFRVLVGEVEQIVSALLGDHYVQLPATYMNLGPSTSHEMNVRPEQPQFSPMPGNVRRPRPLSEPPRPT

Structure (SMILES)	IC50
C#CCC(Oc1c(N)ncc2c(-c3cnn(C4CCNCC4)c3)coc12)c1c(Cl)ccc(F)c1Cl (stereo not drawn) [Example 353, 7-[1-(2,6-Dichloro-3-fluorophenyl)but-3-ynyloxy]-3-(1-piperidin-4-yl-1H-pyrazol-4-yl)furo[3,2-c]pyridin-6-ylamine]	500 to 5000 nM
C[C@@H](Oc1c(N)ncc2c(C3=CCNCC3)coc12)c1c(Cl)ccc(F)c1Cl [Example 8, 7-[(R)-1-(2,6-Dichloro-3-fluorophenyl)ethoxy]-3-(1,2,3,6-tetrahydropyridin-4-yl)-furo[3,2-c]pyridin-6-ylamine]	500 to 5000 nM
C[C@@H](Oc1c(N)ncc2c(-c3ccccc3)coc12)c1c(Cl)ccc(F)c1Cl [Example 3, 7-[(R)-1-(2,6-dichloro-3-fluorophenyl)-ethoxy]-3-phenyl-furo[3,2-c]pyridin-6-ylamine]	500 to 5000 nM
C[C@@H](Oc1c(N)ncc2c(-c3ccccn3)coc12)c1c(Cl)ccc(F)c1Cl [Example 137, 7-[(R)-1-(2,6-Dichloro-3-fluorophenyl)-ethoxy]-3-pyridin-2-ylfuro[3,2-c]pyridin-6-ylamine]	500 to 5000 nM
CC(Oc1c(N)ncc2c(-c3cnn(C4CCNCC4)c3)coc12)c1c(Cl)cc(Cl)cc1Cl (stereo not drawn) [Example 364, 3-(1-Piperidin-4-yl-1H-pyrazol-4-yl)-7-[1-(2,4,6-trichlorophenyl)-ethoxy]furo[3,2-c]pyridin-6-ylamine]	< 500 nM
CCCC(Oc1c(N)ncc2c(-c3cnn(C4CCNCC4)c3)coc12)c1c(Cl)ccc(F)c1Cl (stereo not drawn) [Example 357, 7-[1-(2,6-Dichloro-3-fluorophenyl)butoxy]-3-(1-piperidin-4-yl-1H-pyrazol-4-yl)furo[3,2-c]pyridin-6-ylamine]	< 500 nM
CNC(=O)c1coc2c(O[C@H](C)c3c(Cl)ccc(F)c3Cl)c(N)ncc12 [Example 178, 6-Amino-7-[(R)-1-(2,6-dichloro-3-fluorophenyl)ethoxy]furo[3,2-c]pyridine-3-carboxylic acid methylamide]	500 to 5000 nM
CC(Oc1c(N)ncc2c(-c3cnn(C4CCNCC4)c3)coc12)c1c(Cl)c(F)cc(F)c1Cl (stereo not drawn) [Example 154, 7-[1-(2,6-Dichloro-3,5-difluorophenyl)ethoxy]-3-[1-(piperidin-4-yl)-1H-pyrazol-4-yl]furo[3,2-c]pyridin-6-amine]	< 500 nM
CC(Oc1c(N)ncc2c(-c3cnn(C4CCNCC4)c3)coc12)c1cccc(F)c1Cl (stereo not drawn) [Example 351, 7-[1-(2-Chloro-3-fluorophenyl)ethoxy]-3-(1-piperidin-4-yl-1H-pyrazol-4-yl)-furo[3,2-c]pyridin-6-ylamine]	500 to 5000 nM
COC(=O)N1CC=C(c2coc3c(O[C@H](C)c4c(Cl)ccc(F)c4Cl)c(N)ncc23)CC1 [Example 50, 4-{6-Amino-7-[(R)-1-(2,6-dichloro-3-fluorophenyl)-ethoxy]-furo[3,2-c]pyridin-3-yl}-3,6-dihydro-2H-pyridine-1-carboxylic acid methyl ester]	500 to 5000 nM
CNC(=O)N1CC=C(c2coc3c(O[C@H](C)c4c(Cl)ccc(F)c4Cl)c(N)ncc23)CC1 [Example 35, 4-{6-Amino-7-[(R)-1-(2,6-dichloro-3-fluorophenyl)-ethoxy]-furo[3,2-c]pyridin-3-yl}-3,6-dihydro-2H-pyridine-1-carboxylic acid methylamide]	500 to 5000 nM

Further lines, results first:

IC50	Structure (SMILES)
500 to 5000 nM	CC(=O)N1CC=C(c2coc3c(O[C@H](C)c4c(Cl)ccc(F)c4Cl)c(N)ncc23)CC1 [Example 12, 1-(4-{6-Amino-7-[(R)-1-(2,6-dichloro-3-fluorophenyl)-ethoxy]-furo[3,2-c]pyridin-3-yl}-3,6-dihydro-2H-pyridin-1-yl)-ethanone]
500 to 5000 nM	C[C@@H](Oc1c(N)ncc2c(C3=CCN(S(N)(=O)=O)CC3)coc12)c1c(Cl)ccc(F)c1Cl [Example 141, 4-{6-Amino-7-[(1R)-1-(2,6-dichloro-3-fluorophenyl)ethoxy]furo[3,2-c]pyridin-3-yl}-3,6-dihydropyridine-1(2H)-sulfonamide]
500 to 5000 nM	C[C@@H](Oc1c(N)ncc2c(C3CCNCC3)coc12)c1c(Cl)ccc(F)c1Cl [Example 25, 7-[(R)-1-(2,6-Dichloro-3-fluorophenyl)-ethoxy]-3-piperidin-4-yl-furo[3,2-c]pyridin-6-ylamine]
500 to 5000 nM	C[C@@H](Oc1c(N)ncc2c(-c3ccncc3)coc12)c1c(Cl)ccc(F)c1Cl [Example 127, 7-[(R)-(2,6-Dichloro-3-fluorophenyl)ethoxy]-3-pyridin-4-ylfuro[3,2-c]pyridin-6-ylamine]
< 500 nM	CC(Oc1c(N)ncc2c(-c3cnn(C4CCNCC4)c3)coc12)c1c(Cl)ccc(Cl)c1Cl (stereo not drawn) [Example 349, 3-(1-Piperidin-4-yl-1H-pyrazol-4-yl)-7-[1-(2,3,6-trichlorophenyl)-ethoxy]furo[3,2-c]pyridin-6-ylamine]
500 to 5000 nM	CC(=O)N1CCC(n2cc(-c3coc4c(O[C@H](C)c5c(Cl)ccc(F)c5Cl)c(N)ncc34)cn2)CC1 [Example 276, 1-[4-(4-{6-Amino-7-[(1R)-1-(2,6-dichloro-3-fluorophenyl)ethoxy]furo[3,2-c]pyridin-3-yl}-1H-pyrazol-1-yl)piperidin-1-yl]ethanone]
500 to 5000 nM	CC(Oc1c(N)ncc2c(-c3cnn(C4CCNCC4)c3)coc12)c1cc(F)ccc1Cl (stereo not drawn) [Example 336, 7-[1-(2-Chloro-5-fluorophenyl)ethoxy]-3-(1-piperidin-4-yl-1H-pyrazol-4-yl)-furo[3,2-c]pyridin-6-ylamine]
500 to 5000 nM	Nc1ncc2c(-c3cnn(C4CCNCC4)c3)coc2c1OCc1c(Cl)ccc(F)c1Cl [Example 339, 7-(2,6-Dichloro-3-fluorobenzyloxy)-3-(1-piperidin-4-yl-1H-pyrazol-4-yl)-furo[3,2-c]pyridin-6-ylamine]
500 to 5000 nM	C[C@@H](Oc1c(N)ncc2c(-c3cn[nH]c3)coc12)c1c(Cl)ccc(F)c1Cl [Example 6, 7-[(R)-1-(2,6-Dichloro-3-fluorophenyl)ethoxy]-3-(1H-pyrazol-4-yl)-furo[3,2-c]pyridin-6-ylamine]
500 to 5000 nM	C[C@@H](Oc1c(N)ncc2c(-c3cccnc3)coc12)c1c(Cl)ccc(F)c1Cl [Example 126, 7-[(R)-(2,6-Dichloro-3-fluorophenyl)ethoxy]-3-pyridin-3-ylfuro[3,2-c]pyridin-6-ylamine]
500 to 5000 nM	C[C@@H](Oc1c(N)ncc2c(C3=CCN(C(=O)N(C)C)CC3)coc12)c1c(Cl)ccc(F)c1Cl [Example 26, 4-{6-Amino-7-[(R)-1-(2,6-dichloro-3-fluorophenyl)-ethoxy]-furo[3,2-c]pyridin-3-yl}-3,6-dihydro-2H-pyridine-1-carboxylic acid Dimethylamide]
< 500 nM	C=CCC(Oc1c(N)ncc2c(-c3cnn(C4CCNCC4)c3)coc12)c1c(Cl)ccc(F)c1Cl (stereo not drawn) [Example 358, 7-[1-(2,6-Dichloro-3-fluorophenyl)but-3-enyloxy]-3-(1-piperidin-4-yl-1H-pyrazol-4-yl)furo[3,2-c]pyridin-6-ylamine]
< 500 nM	CCC(Oc1c(N)ncc2c(-c3cnn(C4CCNCC4)c3)coc12)c1c(Cl)ccc(F)c1Cl (stereo not drawn) [Example 350]
